Assay results: patent US20030232887A1, “Preparation and use of a stable formulation of allosteric effector compounds” (priority 2002, published 2003)
Converted amounts (≈) assume the structure as drawn. Where two headings read alike, the source gives them in different places.

Columns and labels:
Format in all cases: physicochemical
[1] = Solubility of the allosteric effector compound in water and stabilizing agent solutions
Description: (§1) The pKa for 2-[4-[2-[(3,5-dimethylphenyl)amino]-2-oxoethyl]phenoxy]-2-methyl-propionic acid is about 3.5. Accordingly, there is an appreciable solubility at a pH of 7. The solubility of the sodium salt of 2-[4-[2-[(3,5-dimethylphenyl)amino]-2-oxoethyl]phenoxy]-2-methyl-propionic acid at a pH of 7 is about 50 mg/ml. […] It is thought that the addition of a stabilizing agent maintains the integrity of this small aggregate-like species.
This unforeseen problem of formation of particulate matter at concentrations beneath the solubility of the compound is solved by the addition of a stabilizing agent. The effect of the stabilizing agent is to prevent or minimize the formation of sub-visual particulates. In some embodiments, the stabilizing agent may also act as a buffer to stabilize the pH of the solution. In other embodiments, the stabilizing agent and buffering agent are different. The stabilizing agent acts to prevent the formation of significant amounts of sub-visual particulate matter, particularly after heat sterilization. The result is a formulation that can be terminally sterilized, have a long shelf life, and meet the USP 25 <788> sub-visual particulate matter requirements. Without being bound by theory, it is believed that stabilization of pH is one factor contributing to stabilization of the formulation; however, the pH of the solution alone is insufficient to stabilize the solutions. […] If necessary, the pH of the solution can be adjusted to a pH of at least about 6, preferably from about 6 to about 11. More preferably, the pH is adjusted to about 6.5 to about 9.0. More preferably, the pH is adjusted to about 7.5 to 8.5. The pH may be adjusted by the addition of any appropriate acid or base. Suitable acids may be amino acids, carboxylic acids, phosphoric acid, hydrochloric acid or other acids suitable for pharmaceutical preparations. Suitable bases include, sodium hydroxide or other bases suitable for pharmaceutical preparations.
Accordingly, stabilizing agents having an amine group are contemplated within the scope of this invention.

pKa = assay: pKa
Description: as §1

[2] = Chemical and physical (precipitate) stability of the formulation
Description: as §1
The allosteric modifying compound is chemically and physically stable between a pH of about 6 and about 11. Preferably, the composition has a pH of at least about 6. More preferably, the composition has a pH ranging from about 6 to about 11. Most preferably, the composition has a pH ranging from about 6.5 to about 9.0.
The composition of the present invention is chemically stable and stable with respect to the formation of particulate matter for at least about thirty days. This makes the composition particularly useful at the administration site because no additional steps, such as filtering the composition, are necessary prior to administration to a patient. Time is time after sterilization.

[3] = 20 mg/mL (58.7 mmol/L), pH 7.5, no stabilizing compound, heat sterilized

| solubility ([1]; aqueous buffer, 0.5 M arginine solution, 23° C., pH 7.2-7.5, read-out: solubility) | solubility ([1]; aqueous buffer, 0.5 M tris solution, 23° C., pH 7-8, read-out: solubility) | solubility ([1]; aqueous buffer, 100-200 mM meglumine solutions, 23° C., pH 7.5, read-out: increase in solubility) | solubility ([1]; in water, 23° C., read-out: solubility) | pKa (pKa) | chemical degradation [2, 3] | solubility ([1]; pH 7, aqueous buffer, pH of 7, read-out: solubility) | SMILES | precipitate formation after heat sterilization [2, 3] | precipitation / subvisual particulate formation in solution ([2]; 20 mg/ml, pH about 7, 25° C.) |
| --- | --- | --- | --- | --- | --- | --- | --- | --- | --- |
| 155 mg/mL (≈ 454 mM) | 99.9 mg/mL (≈ 293 mM) | ~12 mg/mL (≈ 35.1 mM) | ~44 mg/mL (≈ 129 mM) | ~3.5 | stable to chemical degradation |  | Cc1cc(C)cc(NC(=O)Cc2ccc(OC(C)(C)C(=O)O)cc2)c1 [2-[4-[2-[(3,5-dimethylphenyl)amino]-2-oxoethyl]phenoxy]-2-methyl-propionic acid] | developed a precipitate of the allosteric modifier within one week after sterilization | begins to precipitate out of solution, forming subvisual particulate |
|  |  |  |  |  |  | ~50 mg/mL | Cc1cc(C)cc(NC(=O)Cc2ccc(OC(C)(C)C(=O)[O-])cc2)c1.[Na+] [sodium salt of 2-[4-[2-[(3,5-dimethylphenyl)amino]-2-oxoethyl]phenoxy]-2-methyl-propionic acid] |  |  |
